Laboratory results published in patent US20020169175A1, “Pharmaceutically acceptable salts of heterocyclic compounds” (DR. REDDY'S LABORATORIES LTD., priority 2001, published 2002).
Where a name gives a salt, the structure may show the parent alone.

What was measured:
Swiss albino mice = assay: Plasma triglyceride and total cholesterol lowering activity in Swiss albino mice and Guinea pigs; assay type: in vivo, mouse; settings: dose 0.3 mg/kg, oral, 6 days
Method: c) Plasma Triglyceride and Total Cholesterol Lowering Activity in Swiss Albino Mice and Guinea Pigs
Male Swiss albino mice (SAM) and male Guinea pigs were obtained from NIN and housed in DRF animal house. All these animals were maintained under 12 hour light and dark cycle at 25±1° C. Animals were given standard laboratory chow (NIN Hyderabad, India) and water, ad libitum. SAM of 20-25 g body weight range and Guinea pigs of 500-700 g body weight range were used (Oliver, P., Plancke, M. O., Marzin, D., Clavey, V., Sauzieres, J and Fruchart, J. C. Effects of fenofibrate, gemfibrozil and nicotinic acid on plasma lipoprotein levels in normal and hyperlipidemic mice. Atherosclerosis. 1988. 70: 107-114).
The test compounds were administered orally to Swiss albino mice at 0.3 to 30 mg/kg/day dose for 6 days. Control mice were treated with vehicle (0.25% Carboxymethylcellulose; dose 10 ml/kg). The test compounds were administered orally to Guinea pigs at 0.3 to 30 mg/kg/day dose for 6 days. Control animals were treated with vehicle (0.25% Carboxymethylcellulose; dose 5 ml/kg).
The blood samples were collected in fed state 1 hour after drug administration on 0 and 6 day of treatment. The blood was collected from the retro-orbital sinus through heparinised capillary in EDTA containing tubes. After centrifugation, plasma sample was separated for triglyceride and total cholesterol (Wieland, O. Methods of Enzymatic analysis. Bergermeyer, H. O., Ed., 1963. 211-214; Trinder, P. Ann. Clin. Biochem. 1969. 6: 24-27). Measurement of plasma triglyceride, total cholesterol and HDL were done using commercial kits (Dr. Reddy's Diagnostic Division, Hyderabad, India).
(§1) 1. Percent reduction in Blood sugar/triglycerides/total cholesterol were calculated according to the formula: [formula]

C57BL/KsJ-db/db mice = assay: Efficacy in genetic models: blood sugar lowering in db/db mice; assay type: in vivo, mouse; settings: 0.1 mg/kg oral gavage daily for 6 days
Source text: a) Efficacy in Genetic Models
Mutation in colonies of laboratory animals and different sensitivities to dietary regimens have made the development of animal models with non-insulin dependent diabetes and hyperlipidemia associated with obesity and insulin resistance possible. Genetic models such as db/db and ob/ob (Diabetes, (1982) 31(1): 1-6) mice and zucker fa/fa rats have been developed by the various laboratories for understanding the pathophysiology of disease and testing the efficacy of new antidiabetic compounds (Diabetes, (1983) 32: 830-838; Annu. Rep. Sankyo Res. Lab. (1994). 46: 1-57). […]
The random blood sugar and triglyceride levels were measured by collecting blood (100 μl) through orbital sinus, using heparinised capillary in tubes containing EDTA which was centrifuged to obtain plasma. The plasma glucose and triglyceride levels were measured spectrometrically, by glucose oxidase and glycerol-3-PO4 oxidase/peroxidase enzyme (Dr. Reddy's Lab. Diagnostic Division Kits, Hyderabad, India) methods respectively.
The blood sugar and triglycerides lowering activities of the test compound was calculated according to the formula.
as §1

hPPARγ1 = molecular target: T1, hPPARγ1 (Homo sapiens, UniProt P37231); assay: Determination of hPPARγ activity (GAL4 fusion luciferase reporter in transfected HEK-293 cells); assay type: cell-based; settings: compound concentration 1 μM
T1 construct: expressed in transfected cells; host or cells: HEK-293
T1 sequence (P37231 238-503 limits assumed): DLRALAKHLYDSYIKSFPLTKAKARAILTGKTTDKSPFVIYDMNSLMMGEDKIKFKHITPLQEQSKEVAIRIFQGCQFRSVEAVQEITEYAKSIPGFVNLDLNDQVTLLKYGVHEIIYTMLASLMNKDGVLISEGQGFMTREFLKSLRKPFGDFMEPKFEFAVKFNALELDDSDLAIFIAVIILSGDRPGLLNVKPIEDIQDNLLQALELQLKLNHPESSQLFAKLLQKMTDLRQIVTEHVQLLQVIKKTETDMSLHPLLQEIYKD
Method: b) Determination of hPPARγ Activity
Ligand binding domain of hPPARγ1 was fused to DNA binding domain of Yeast transcription factor GAL4 in eucaryotic expression vector. Using lipofectamine (Gibco BRL, USA) as transfecting reagent HEK-293 cells were transfected with this plasmid and a reporter plasmid harboring the luciferase gene driven by a GAL4 specific promoter. Compound was added at 1 μM concentration after 48 hrs of transfection and incubated overnight. Luciferase activity as a function of drug binding/activation capacity of PPARγ1 was measured using Packard Luclite kit (Packard, USA) in Packard Top Count (Ivan Sadowski, Brendan Bell, Peter Broag and Melvyn Hollis. Gene. 1992. 118: 137-141; Guide to Eukaryotic Transfections with Cationic Lipid Reagents. Life Technologies, GIBCO BRL, USA).

hPPARα = molecular target: T2, hPPARα (Homo sapiens, UniProt Q07869); assay: Determination of hPPARα activity (GAL4 fusion luciferase reporter in transfected HEK-293 cells); assay type: cell-based; settings: compound concentration 50 μM
T2 construct: expressed in transfected cells; host or cells: HEK-293
T2 sequence (Q07869 239-466 limits assumed): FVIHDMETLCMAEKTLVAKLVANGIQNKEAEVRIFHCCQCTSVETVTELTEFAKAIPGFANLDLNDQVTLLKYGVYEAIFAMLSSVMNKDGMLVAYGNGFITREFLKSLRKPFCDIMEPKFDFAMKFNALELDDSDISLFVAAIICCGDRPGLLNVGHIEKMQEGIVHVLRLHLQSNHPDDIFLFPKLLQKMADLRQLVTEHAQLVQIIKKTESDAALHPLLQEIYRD
Method: a) Determination of hPPARα Activity
Ligand binding domain of hPPARα was fused to DNA binding domain of Yeast transcription factor GAL4 in eucaryotic expression vector. Using superfect (Qiagen, Germany) as transfecting reagent HEK-293 cells were transfected with this plasmid and a reporter plasmid harboring the luciferase gene driven by a GAL4 specific promoter. Compound was added at different concentrations after 42 hrs of transfection and incubated overnight. Luciferase activity as a function of compound binding/activation capacity of PPARα was measured using Packard Luclite kit (Packard, USA) in Top Count (Ivan Sadowski, Brendan Bell, Peter Broag and Melvyn Hollis. Gene. 1992. 118: 137-141; Superfect Transfection Reagent Handbook. February 1997. Qiagen, Germany).

SMILES: CCO[C@@H](Cc1ccc(OCCn2c(CC)nc3ccccc3c2=O)cc1)C(=O)O [Example 11, (−)-3-[4-[2-(2-Ethyl-4-oxo-3,4-dihydroquinazolin-3-yl)ethoxy]phenyl]-2-ethoxypropanoic acid arginine salt]
- Triglyceride Lowering (%) (Swiss albino mice): 58%
- Reduction in Blood Glucose Level (%) (C57BL/KsJ-db/db mice): 61%
- PPARγ (hPPARγ1): 27.0
- PPARα (hPPARα): 13.8
